Measurements reported in PubChem BioAssay AID248 (DTP/NCI, 2004).
Values joined by “and” are separate entries in the source; they are usually repeats but may differ in a detail not shown here. Equal values may be shown once. Inconclusive results and toxic doses are left out.

System: L1210 leukemia ip in BDF1 mice, survival T/C
Assay: NCI In Vivo Anticancer Drug Screen. Data for tumor model L1210 Leukemia (intraperitoneal) in B6D2F1 (BDF1) mice
Details: endpoint: mean survival time, higher = longer survival
How it was run: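 Transplanted-tumor mice were given test agent; controls received vehicle only. Survival readings from the two groups were divided (treated over control).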

[1] = dose: 100.0 mg/kg/injection, schedule: Q01DX001 (ip), vehicle: carboxymethylcellulose (CMC)
[2] = dose: 200.0 mg/kg/injection, schedule: Q01DX001 (ip), vehicle: carboxymethylcellulose (CMC)
[3] = dose: 100.0 mg/kg/injection, schedule: Q01DX001 (ip), vehicle: other
[4] = dose: 200.0 mg/kg/injection, schedule: Q01DX001 (ip), vehicle: other
[5] = dose: 400.0 mg/kg/injection, schedule: Q01DX001 (ip), vehicle: other

CCOC(=O)NP(=O)(N1CC1)N1CC1
T/C (dose: 0.16 mg/kg/injection, schedule: Q#A X Z (ip), vehicle: saline): 100 % of control
T/C (dose: 0.31 mg/kg/injection, schedule: Q#A X Z (ip), vehicle: saline): 100 % of control
T/C (dose: 0.32 mg/kg/injection, schedule: Q01DX Z (im), vehicle: saline): 105 % of control
T/C (dose: 0.32 mg/kg/injection, schedule: Q01DX Z (ip), vehicle: saline): 102 % of control
T/C (dose: 0.62 mg/kg/injection, schedule: Q#A X Z (ip), vehicle: saline): 102 % of control
T/C (dose: 0.63 mg/kg/injection, schedule: Q01DX Z (im), vehicle: saline): 105 % of control
T/C (dose: 0.63 mg/kg/injection, schedule: Q01DX Z (ip), vehicle: saline): 98 % of control
T/C (dose: 0.7 mg/kg/injection, schedule: Q01DX Z (ip), vehicle: carboxymethylcellulose (CMC)): 101 % of control
T/C (dose: 0.9 mg/kg/injection, schedule: Q03DX006 (ip), vehicle: saline): 104 % of control
T/C (dose: 1.25 mg/kg/injection, schedule: Q01DX Z (im), vehicle: saline): 104 % of control
T/C (dose: 1.25 mg/kg/injection, schedule: Q01DX Z (ip), vehicle: saline): 105 % of control
T/C (dose: 1.25 mg/kg/injection, schedule: Q01DX Z (oral), vehicle: saline): 100 % of control
T/C (dose: 1.25 mg/kg/injection, schedule: Q#A X Z (ip), vehicle: saline): 121 % of control
T/C (dose: 1.5 mg/kg/injection, schedule: Q01DX Z (ip), vehicle: carboxymethylcellulose (CMC)): 104 % of control
T/C (dose: 1.9 mg/kg/injection, schedule: Q03DX006 (ip), vehicle: saline): 104 % of control
T/C (dose: 2.2 mg/kg/injection, schedule: Q01DX001 (ip), vehicle: saline): 101 % of control and 107 % of control
T/C (dose: 2.2 mg/kg/injection, schedule: Q07DX003 (ip), vehicle: saline): 105 % of control
T/C (dose: 2.37 mg/kg/injection, schedule: Q01DX Z (ip), vehicle: carboxymethylcellulose (CMC)): 114 % of control
T/C (dose: 2.5 mg/kg/injection, schedule: Q01DX Z (im), vehicle: saline): 107 % of control
T/C (dose: 2.5 mg/kg/injection, schedule: Q01DX Z (ip), vehicle: saline): 107 % of control
T/C (dose: 2.5 mg/kg/injection, schedule: Q01DX Z (oral), vehicle: saline): 107 % of control
T/C (dose: 3.0 mg/kg/injection, schedule: Q01DX Z (ip), vehicle: carboxymethylcellulose (CMC)): 113 % of control
T/C (dose: 3.8 mg/kg/injection, schedule: Q03DX006 (ip), vehicle: saline): 105 % of control
T/C (dose: 4.4 mg/kg/injection, schedule: Q01DX001 (ip), vehicle: saline): 102 % of control
T/C (dose: 4.4 mg/kg/injection, schedule: Q07DX003 (ip), vehicle: saline): 105 % of control
T/C (dose: 5.0 mg/kg/injection, schedule: Q01DX006 (iv), vehicle: saline): 100 % of control
T/C (dose: 5.0 mg/kg/injection, schedule: Q01DX Z (oral), vehicle: saline): 100 % of control
T/C (dose: 5.0 mg/kg/injection, schedule: Q01DX Z (sc), vehicle: saline): 120 % of control
T/C (dose: 5.06 mg/kg/injection, schedule: Q01DX Z (ip), vehicle: carboxymethylcellulose (CMC)): 117 % of control
T/C (dose: 6.0 mg/kg/injection, schedule: Q01DX Z (ip), vehicle: carboxymethylcellulose (CMC)): 158 % of control
T/C (dose: 6.33 mg/kg/injection, schedule: Q01DX Z (ip), vehicle: carboxymethylcellulose (CMC)): 124 % of control
T/C (dose: 7.5 mg/kg/injection, schedule: Q03DX006 (ip), vehicle: saline): 119 % of control
T/C (dose: 8.7 mg/kg/injection, schedule: Q01DX001 (ip), vehicle: saline): 108 % of control
T/C (dose: 8.7 mg/kg/injection, schedule: Q07DX003 (ip), vehicle: saline): 105 % of control
T/C (dose: 8.75 mg/kg/injection, schedule: Q01DX001 (ip), vehicle: saline): 113 % of control and 123 % of control
T/C (dose: 9.5 mg/kg/injection, schedule: Q01DX Z (ip), vehicle: carboxymethylcellulose (CMC)): 157 % of control
T/C (dose: 10.0 mg/kg/injection, schedule: Q01DX006 (iv), vehicle: saline): 105 % of control
T/C (dose: 10.0 mg/kg/injection, schedule: Q01DX Z (im), vehicle: saline): 160 % of control
T/C (dose: 10.0 mg/kg/injection, schedule: Q01DX Z (ip), vehicle: saline): 195 % of control
T/C (dose: 10.0 mg/kg/injection, schedule: Q01DX Z (oral), vehicle: saline): 115 % of control
T/C (dose: 10.0 mg/kg/injection, schedule: Q#A X Z (ip), vehicle: saline): 110 % of control
T/C (dose: 12.0 mg/kg/injection, schedule: Q01DX Z (ip), vehicle: carboxymethylcellulose (CMC)): 115 % of control
T/C (dose: 12.66 mg/kg/injection, schedule: Q01DX Z (ip), vehicle: carboxymethylcellulose (CMC)): 152 % of control
T/C (dose: 15.0 mg/kg/injection, schedule: Q03DX007 (ip), vehicle: saline): 182 % of control
T/C (dose: 20.0 mg/kg/injection, schedule: Q01DX006 (iv), vehicle: saline): 117 % of control
T/C (dose: 20.0 mg/kg/injection, schedule: Q01DX Z (im), vehicle: saline): 152 % of control
T/C (dose: 20.0 mg/kg/injection, schedule: Q01DX Z (sc), vehicle: saline): 175 % of control
T/C (dose: 24.0 mg/kg/injection, schedule: Q01DX Z (ip), vehicle: carboxymethylcellulose (CMC)): 94 % of control and 102 % of control
T/C (dose: 30.0 mg/kg/injection, schedule: Q03DX007 (ip), vehicle: saline): 165 % of control
T/C (dose: 38.0 mg/kg/injection, schedule: Q01DX Z (ip), vehicle: carboxymethylcellulose (CMC)): 94 % of control
T/C (dose: 40.0 mg/kg/injection, schedule: Q01DX Z (im), vehicle: saline): 94 % of control
T/C (dose: 40.0 mg/kg/injection, schedule: Q01DX Z (ip), vehicle: saline): 103 % of control
T/C (dose: 40.0 mg/kg/injection, schedule: Q01DX Z (oral), vehicle: saline): 155 % of control
T/C (dose: 70.0 mg/kg/injection, schedule: Q07DX001 (ip), vehicle: saline): 115 % of control
T/C (dose: 80.0 mg/kg/injection, schedule: Q01DX Z (sc), vehicle: saline): 111 % of control
T/C (dose: 280.0 mg/kg/injection, schedule: Q01DX001 (ip), vehicle: saline): 105 % of control

CCCN1CCCN(CCC)C1=O
T/C (dose: 50.0 mg/kg/injection, schedule: Q04DX002 (ip), vehicle: Klucel (hydroxypropylcellulose) (HPC)): 102 % of control
T/C (dose: 100.0 mg/kg/injection, schedule: Q04DX002 (ip), vehicle: Klucel (hydroxypropylcellulose) (HPC)): 102 % of control
T/C (dose: 200.0 mg/kg/injection, schedule: Q04DX002 (ip), vehicle: Klucel (hydroxypropylcellulose) (HPC)): 93 % of control

O=C(O)/C(=C/c1ccccc1)c1ccccc1
T/C (dose: 100.0 mg/kg/injection, schedule: Q04DX002 (ip), vehicle: saline with Tween-80): 95 % of control and 96 % of control
T/C (dose: 200.0 mg/kg/injection, schedule: Q04DX002 (ip), vehicle: saline with Tween-80): 96 % of control and 88 % of control

CC(C)(C)C(=O)C(C)(C)C
T/C [1]: 106 % of control
T/C [2]: 101 % of control

Oc1[nH]c2ccccc2c1N=Nc1ccccn1
T/C [3]: 93 % of control
T/C [4]: 101 % of control
T/C [5]: 104 % of control

C(=N\n1cnc2c(SCc3ccccc3)ncnc21)/c1ccccc1
T/C [3]: 93 % of control
T/C [4]: 91 % of control
T/C [5]: 91 % of control

COc1cc(N(CCCl)CCCl)c(OC)cc1C=Nc1cccc(Br)c1
T/C (dose: 26.6 mg/kg/injection, schedule: Q01DX009 (ip), vehicle: carboxymethylcellulose (CMC)): 105 % of control
T/C (dose: 40.0 mg/kg/injection, schedule: Q01DX009 (ip), vehicle: carboxymethylcellulose (CMC)): 96 % of control
T/C [1]: 120 % of control
T/C [2]: 107 % of control
T/C (dose: 266.0 mg/kg/injection, schedule: Q01DX001 (ip), vehicle: carboxymethylcellulose (CMC)): 157 % of control

OCC1OC2OC(c3ccccc3)(c3ccc(OCc4ccccc4)nc3OCc3ccccc3)OC2C1O (centres undefined)
T/C [3]: 88 % of control
T/C [4]: 90 % of control
T/C [5]: 92 % of control

CCOC1CCC2C(CCC(/C=C/c3ccc(O)c4ncccc34)N2C)C1 (centres undefined)
T/C (dose: 21.0 mg/kg/injection, schedule: Q01DX015 (ip), vehicle: saline): 113 % of control
T/C (dose: 36.0 mg/kg/injection, schedule: Q01DX015 (ip), vehicle: saline): 111 % of control
T/C (dose: 88.8 mg/kg/injection, schedule: Q01DX001 (ip), vehicle: saline): 103 % of control and 116 % of control
T/C (dose: 100.0 mg/kg/injection, schedule: Q01DX001 (ip), vehicle: saline): 115 % of control
T/C (dose: 100.0 mg/kg/injection, schedule: Q01DX015 (ip), vehicle: saline): 93 % of control
T/C (dose: 133.4 mg/kg/injection, schedule: Q01DX001 (ip), vehicle: saline): 108 % of control and 116 % of control and 121 % of control
T/C (dose: 300.0 mg/kg/injection, schedule: Q01DX001 (ip), vehicle: saline): 116 % of control and 121 % of control
